The values that follow are results of earlier work, collected in patent US20160243064A1, “NOVEL ORAL PHARMACEUTICAL COMPOSITIONS OF TREPROSTINIL” (Gavis Pharmaceuticals, priority 2015, published 2016).

The conditions of the data set: free acid, as taught by the cited US patents.

On to `CCCCC[C@H](O)CC[C@@H]1[C@H]2Cc3cccc(OCC(=O)O)c3C[C@H]2C[C@H]1O` [treprostinil], for which the oral absolute bioavailability result was “less than 10%”.
